The values below come from ChEMBL document CHEMBL5352417, “Design, synthesis, and biological evaluation of aromatic tertiary amine derivatives as selective butyrylcholinesterase inhibitors for the treatment of Alzheimer's disease” (Eur J Med Chem, 2022).

Structures are written as SMILES. The source made the active and inactive calls. The rule behind the calls is not given here.

For data set [1], the target named is T1, Cholinesterase (Homo sapiens, UniProt P06276). Nature of the data set: Inhibition of human BChE using butyrylthiocholine iodide as substrate measured for 3 mins by Ellman's method. (DTNB colorimetry detects thiols as they appear.)
Data set [2] has as its system SH-SY5Y. Briefly: Neuroprotective activity against amyloid beta (1 to 42)-induced injury in human SH-SY5Y cells assessed as cell viability at 0.5 to 50 uM by MTT assay. The class given is functional, cell-based. Conditions: dose 0.5-50 µM.
The nature of data set [3]: Neurotoxicity against human SH-SY5Y cells incubated for 24 hrs by MTT assay. The class given is toxicity, cell-based. Conditions: read-out: LD50.
Data set [4] has as its target Cholinesterase (Equus caballus, UniProt P81908). Nature of the data set: Inhibition of horse serum BuChE using butyrylthiocholine iodide as substrate measured for 3 mins by Ellman's method. The data set is classed as cell-free.
Data set [5] in a line: Neurotoxicity against mouse HT-22 cells incubated for 24 hrs by MTT assay. Conditions: read-out: LD50. The data set is classed as toxicity, cell-based.
The nature of data set [6]: Neurotoxicity against mouse BV-2 cells incubated for 24 hrs by MTT assay. The class given is toxicity, cell-based. Conditions: read-out: LD50.
A short description of data set [7]: Neurotoxicity against rat PC12 cells incubated for 24 hrs by MTT assay. The class given is toxicity, cell-based, PC-12. Conditions: read-out: LD50. (Tetrazolium dyes change colour on reduction, which living cells bring about.)
Data set [8] has as its target Cholinesterase (Equus caballus) (UniProt P81908). Nature of the data set: Inhibition of horse serum BuChE using butyrylthiocholine iodide as substrate at <10 uM measured for 3 mins by Ellman's method relative to control. The class given is cell-free.
A short description of data set [9]: Effective permeability of compound at 25 ug/ml incubated for 18 hrs by PAMPA-BBB assay. Conditions: dose 25 µg/ml, read-out: Peff. The data set is classed as ADME. A general note: The PAMPA barrier holds no transporters, so it reflects passive diffusion.
The target in data set [10] is Acetylcholinesterase (Electrophorus electricus) (UniProt O42275). Nature of the data set: Inhibition of electric eel AchE using acetylthiocholine iodide as substrate at <10 uM measured for 3 mins by Ellman's method relative to control.
For data set [11], the target named is Cholinesterase (Mus musculus, UniProt Q03311).
Description: Inhibition of mouse BChE by Ellman's method
For data set [12], the system named is SH-SY5Y. Briefly: Neuroprotective activity against amyloid beta (1 to 42)-induced injury in human SH-SY5Y cells assessed as cell viability by MTT assay. The class given is functional, cell-based. Conditions: dose 0.5-50 µM.
In data set [13] the test system is Mus musculus. Briefly: Antialzheimer activity against amyloid beta (1 to 42)-induced mouse model of cognitive dysfunction assessed as reaching target platform at 15 mg/kg, po measured for 14 days by Morris Water maze method. Conditions: ICR, time 14.0 day. The class given is functional, organism-based.
A short description of data set [14]: Acute toxicity in fasted ICR mouse assessed as change in animal growth at 1 g/kg, po administered on day 1 followed by food supply after 2 hrs post compound administration measured after few days after first day administration. The class given is organism-based. Conditions: in vivo, 1000 mg/kg.
A short description of data set [15]: Acute toxicity in fasted ICR mouse assessed as obvious toxicity at 1 g/kg, po followed by food supply after 2 hrs post compound administration measured for 14 days. Conditions: in vivo, 1000 mg/kg, 336 h, time 14 day. The data set is classed as organism-based.
Data set [16] concerns the target T1, Cholinesterase. Nature of the data set: Non-competitive inhibition of BChE (unknown origin) using butyrylthiocholine iodide as substrate upto 400 nM measured for 5 mins by Lineweaver-Burk plot analysis.
For data set [17], the system named is Mus musculus. Nature of the data set: Antialzheimer activity against amyloid beta (1 to 42)-induced mouse model of cognitive dysfunction assessed as latency time at 15 mg/kg, po measured for 14 days by Morris Water maze method. The class given is functional, ICR. Conditions: time 14 day.
A short description of data set [18]: Neurotoxicity against human SH-SY5Y cells assessed as survival rate incubated for 24 hrs by MTT assay relative to control. Conditions: read-out: Survival. The data set is classed as toxicity, cell-based. More on the design: concentration or dose not given beside the values.
A short description of data set [19]: Acute toxicity in fasted ICR mouse assessed as animal death at 1 g/kg, po followed by food supply after 2 hrs post compound administration measured for 14 days. The class given is organism-based. Conditions: in vivo, 1000 mg/kg, 336 h, time 14 day.
For data set [20], the system named is Mus musculus. Briefly: Antialzheimer activity against amyloid beta (1 to 42)-induced mouse model of cognitive dysfunction assessed as reduction in latency time at 15 mg/kg, po measured for 14 days by Morris Water maze method. The data set is classed as functional, organism-based. Conditions: ICR, time 14.0 day.
Data set [21] is described as follows: Neurotoxicity against mouse HT-22 cells assessed as survival rate incubated for 24 hrs by MTT assay relative to control. The data set is classed as toxicity, cell-based. On the set-up: concentration or dose not given beside the values. Conditions: read-out: Survival.
Data set [22] can be described thus: Neurotoxicity against rat PC12 cells assessed as survival rate incubated for 24 hrs by MTT assay relative to control. The class given is toxicity, cell-based, PC-12. On the set-up: concentration or dose not given beside the values. Conditions: read-out: Survival.

T1 sequence (P06276 whole entry): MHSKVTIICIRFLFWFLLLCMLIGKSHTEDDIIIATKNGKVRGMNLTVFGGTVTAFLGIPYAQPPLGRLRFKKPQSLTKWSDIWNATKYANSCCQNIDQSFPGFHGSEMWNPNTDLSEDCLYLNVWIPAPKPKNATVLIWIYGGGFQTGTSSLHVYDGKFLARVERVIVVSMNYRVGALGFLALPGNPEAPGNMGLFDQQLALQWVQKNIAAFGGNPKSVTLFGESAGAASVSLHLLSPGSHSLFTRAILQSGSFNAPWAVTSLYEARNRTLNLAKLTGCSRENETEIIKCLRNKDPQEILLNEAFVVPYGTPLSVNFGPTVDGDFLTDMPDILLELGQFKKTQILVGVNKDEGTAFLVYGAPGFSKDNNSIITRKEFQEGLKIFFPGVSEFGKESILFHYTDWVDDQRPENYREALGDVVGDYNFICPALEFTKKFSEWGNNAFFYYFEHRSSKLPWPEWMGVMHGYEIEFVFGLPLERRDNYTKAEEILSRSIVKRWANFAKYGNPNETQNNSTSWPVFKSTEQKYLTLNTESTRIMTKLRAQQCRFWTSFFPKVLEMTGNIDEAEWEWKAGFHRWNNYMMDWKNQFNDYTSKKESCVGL
Cholinesterase (Equus caballus), sequence (P81908 whole entry, the tested form may be a part): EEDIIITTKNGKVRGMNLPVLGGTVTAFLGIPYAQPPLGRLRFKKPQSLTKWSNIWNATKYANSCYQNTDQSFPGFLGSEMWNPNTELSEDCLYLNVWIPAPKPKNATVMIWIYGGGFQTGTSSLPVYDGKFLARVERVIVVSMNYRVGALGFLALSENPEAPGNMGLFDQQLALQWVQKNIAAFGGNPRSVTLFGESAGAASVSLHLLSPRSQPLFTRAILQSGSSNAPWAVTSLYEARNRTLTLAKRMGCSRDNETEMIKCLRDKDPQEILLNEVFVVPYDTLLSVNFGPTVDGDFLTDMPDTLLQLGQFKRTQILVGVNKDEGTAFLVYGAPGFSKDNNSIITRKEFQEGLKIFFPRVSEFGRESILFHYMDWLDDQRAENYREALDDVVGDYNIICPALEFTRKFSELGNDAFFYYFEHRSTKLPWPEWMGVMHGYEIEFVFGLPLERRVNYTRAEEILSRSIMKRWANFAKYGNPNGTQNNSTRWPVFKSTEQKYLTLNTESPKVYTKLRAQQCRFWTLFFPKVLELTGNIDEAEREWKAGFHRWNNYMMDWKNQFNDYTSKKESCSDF
Cholinesterase (Equus caballus, UniProt P81908), sequence (P81908 whole entry): as the sequence (P81908 whole entry, the tested form may be a part) above
Acetylcholinesterase (Electrophorus electricus), sequence (O42275 24-633 limits assumed): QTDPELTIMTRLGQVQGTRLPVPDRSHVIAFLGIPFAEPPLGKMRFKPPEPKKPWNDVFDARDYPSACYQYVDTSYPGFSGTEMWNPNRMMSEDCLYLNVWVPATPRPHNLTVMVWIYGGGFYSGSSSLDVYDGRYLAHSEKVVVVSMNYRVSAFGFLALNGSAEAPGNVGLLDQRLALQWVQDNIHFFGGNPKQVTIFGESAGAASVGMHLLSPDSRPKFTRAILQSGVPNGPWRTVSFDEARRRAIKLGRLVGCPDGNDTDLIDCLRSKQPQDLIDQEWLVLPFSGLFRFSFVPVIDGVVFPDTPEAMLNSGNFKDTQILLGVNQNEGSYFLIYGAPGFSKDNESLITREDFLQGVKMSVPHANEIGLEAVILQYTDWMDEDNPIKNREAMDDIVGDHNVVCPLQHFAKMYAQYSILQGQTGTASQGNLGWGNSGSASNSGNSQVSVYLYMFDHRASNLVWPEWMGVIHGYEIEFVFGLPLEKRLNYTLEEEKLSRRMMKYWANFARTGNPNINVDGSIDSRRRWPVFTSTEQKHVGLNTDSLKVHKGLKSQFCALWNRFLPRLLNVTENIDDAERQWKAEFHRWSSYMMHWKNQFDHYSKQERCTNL
Cholinesterase (Mus musculus, UniProt Q03311), sequence (Q03311 whole entry): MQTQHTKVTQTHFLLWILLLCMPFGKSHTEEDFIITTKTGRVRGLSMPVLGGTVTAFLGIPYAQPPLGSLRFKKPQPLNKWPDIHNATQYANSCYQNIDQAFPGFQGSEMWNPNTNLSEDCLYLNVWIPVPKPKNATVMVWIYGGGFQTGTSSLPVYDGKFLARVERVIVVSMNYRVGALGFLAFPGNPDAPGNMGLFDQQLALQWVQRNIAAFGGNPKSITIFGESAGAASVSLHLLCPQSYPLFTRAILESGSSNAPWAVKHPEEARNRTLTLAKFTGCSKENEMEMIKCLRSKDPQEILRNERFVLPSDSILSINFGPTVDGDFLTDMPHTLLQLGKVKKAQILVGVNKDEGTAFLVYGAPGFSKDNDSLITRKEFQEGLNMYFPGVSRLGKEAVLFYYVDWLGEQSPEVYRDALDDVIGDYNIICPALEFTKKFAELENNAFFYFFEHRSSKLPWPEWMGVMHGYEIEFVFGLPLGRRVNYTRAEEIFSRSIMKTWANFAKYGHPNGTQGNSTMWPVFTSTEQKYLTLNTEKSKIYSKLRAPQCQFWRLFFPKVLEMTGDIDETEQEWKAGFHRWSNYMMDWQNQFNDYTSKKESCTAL

The term IC50 denotes the point on the concentration scale where inhibition reaches its midpoint. A word on the inhibition: it is the share of the control response that was lost under treatment. In the case of `CCN(CC)CCN(CC(=O)Nc1ccccc1C)Cc1ccc2ccccc2c1`, the IC50 is 0.29 µM against Cholinesterase [1] and 1.45 µM at Cholinesterase [4]. Moreover, in the data set on SH-SY5Y [2], the outcome was inactive. For the same compound, the CC50 at 24 h in [3] came out at 50.8 µM; in [5] it was 85.1 µM; in [6], 24.2 µM; in data set [7], 40.6 µM. In addition, the inhibition in data set [8] worked out at 85.6%; in data set [10], 20.1%. In [9], the Papp at 18 h, 25 ug/ml was 10.6 ×10⁻⁶ cm/s.
Regarding `O=C(CN(Cc1ccco1)Cc1c[nH]c2ccccc12)Nc1ccccc1`, the CC50 at 24 h in data set [3] turned out to be 42.2 µM; in data set [5], 59.6 µM; in [6], 27.5 µM; in [7] it was 40.4 µM. For the same compound, on Cholinesterase [4], the IC50 was found to be 2.14 µM. The inhibition is 65.3% in [8] and 26.2% in [10]. The Papp at 18 h, 25 ug/ml in [9] amounted to 7.3 ×10⁻⁶ cm/s.
For `COCCN(CC1CCCN(Cc2ccccc2)C1)S(=O)(=O)c1ccc2ccccc2c1` (stereo not drawn), on Cholinesterase [11], the IC50 is > 10 µM.
Take `Cc1ccccc1NC(=O)CN(Cc1ccc2ccccc2c1)CC(C)C`: the Activity entry with SH-SY5Y [12] is “Dose-Dependent Effect”; in data set [14], “Toxic”; in data set [15], “Non-Toxic”; in data set [19], “Non-Toxic”. Also, the IC50 is 0.016 µM against Cholinesterase [1] and 0.22 µM at Cholinesterase [4]. For the same compound, the result with Mus musculus [13] was Active. For the same compound, the figures for the CC50 at 24 h in [5], in [6] and in data set [7] were 18.9 µM, 39.3 µM and 78.8 µM, respectively. Moreover, the inhibition in [8] is 94.3%; in [10] it was 22.2%. Further, in data set [9], the Papp at 18 h, 25 ug/ml is 13.1 ×10⁻⁶ cm/s. Moreover, the inhibition result at Cholinesterase [16] is “Active”. Besides, the Time in the data set on Mus musculus [17] was 11.4 s. Further, the viability at 24 h in data set [18] was determined as 47.8%.
Turning to `COc1cc2c(cc1OC)C(=O)C(CC1CCN(Cc3ccccc3)CC1)C2` (stereo not drawn), the outcome in the data set on Mus musculus [20] was Active.
For the compound `CCCCN(CCCc1ccccc1)Cc1ccc2ccccc2c1`, the IC50 amounted to 0.011 µM against Cholinesterase [1] and 0.23 µM at Cholinesterase [4]. Moreover, the viability at 24 h in data set [21] was 51.2%; in [22], 51.9%; in [18], 85.5%. In the data set with SH-SY5Y [2], the outcome was inactive. The outcome with Mus musculus [13] was Active. Moreover, the CC50 at 24 h in data set [6] worked out at 34.4 µM. Moreover, the inhibition in data set [8] stood at 89%; in data set [10], 23%. The Papp at 18 h, 25 ug/ml in [9] was determined as 10.1 ×10⁻⁶ cm/s. Further, the Time with Mus musculus [17] turned out to be 14.4 s.
